Source: patent US20240270821A1, “GIP/GLP1/GCG TRI-RECEPTOR AGONISTS AND USES THEREOF” (priority 2023, published 2024)
Where two headings read alike, the source gives them in different places. Starred links: 1 amine or outer side, 2 acyl side, 3 side chain; linkers in the order of their positions; H or OH if unused. Non-standard residues stand in square brackets, D forms with d. Groups on a side chain read outwards from the residue. No end group written: not given here. *: point of attachment. C18 diacid = O=C(O)CCCCCCCCCCCCCCCCC(=O)*; γGlu = O=C(O)[C@H](CCC(=O)[*:2])N[*:1]; αMe4Pal = C[C@](N)(Cc1ccncc1)C(=O)O; αMeY = C[C@](N)(Cc1ccc(O)cc1)C(=O)O; 4Pal = N[C@@H](Cc1ccncc1)C(=O)O; αMeL = CC(C)C[C@](C)(N)C(=O)O; Orn = NCCC[C@H](N)C(=O)O; AEEA = NCCOCCOCC(=O)O; Aib = CC(C)(N)C(=O)O

Assays:
Assay type in all cases: cell-based
[1] = molecular target: human GcgR (Homo sapiens, UniProt P47871); assay: Functional cAMP activity in the presence of 1% HSA; conditions: read-out: cAMP Rel EC50, hGcgR
[2] = molecular target: T1, hGIPR (Homo sapiens, UniProt P48546); assay: Functional cAMP activation in the presence of 0.1% casein (no HSA); conditions: in the presence of 0.1% casein (no HSA); geometric mean; read-out: Relative cAMP EC50, hGIPR;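 also: intracellular cAMP rise after 30 min at 37 °C read by HTRF against a standard curve, scaled between buffer alone (0%) and top control ligand concentration (100%), four-parameter fit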
T1 sequence (P48546 22-466): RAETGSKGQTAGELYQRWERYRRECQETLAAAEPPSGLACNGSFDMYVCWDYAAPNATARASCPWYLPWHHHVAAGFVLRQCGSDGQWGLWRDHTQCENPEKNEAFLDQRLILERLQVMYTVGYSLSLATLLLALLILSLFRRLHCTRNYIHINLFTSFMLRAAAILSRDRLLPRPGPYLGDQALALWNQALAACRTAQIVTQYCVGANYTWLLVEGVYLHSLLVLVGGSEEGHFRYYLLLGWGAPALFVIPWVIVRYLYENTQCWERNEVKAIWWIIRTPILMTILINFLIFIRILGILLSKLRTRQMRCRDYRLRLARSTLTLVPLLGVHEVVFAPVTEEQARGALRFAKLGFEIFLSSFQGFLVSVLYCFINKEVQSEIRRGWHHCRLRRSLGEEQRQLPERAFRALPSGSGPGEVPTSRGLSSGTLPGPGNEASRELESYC

[3] = molecular target: T1, hGIPR; assay: Functional cAMP activity in the presence of 1% HSA; conditions: read-out: cAMP Rel EC50, hGIPR
[4] = molecular target: hGcgR (Homo sapiens, UniProt P47871); assay: Functional cAMP activation in the presence of 0.1% casein (no HSA); conditions: in the presence of 0.1% casein (no HSA); geometric mean; read-out: Relative cAMP EC50, hGcgR;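 also: intracellular cAMP rise after 30 min at 37 °C, read by HTRF against a cAMP standard curve, scaled from buffer only (0%) to maximal control ligand response (100%)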
[5] = molecular target: T2, hGLP-1R (Homo sapiens, UniProt P43220); assay: as above; conditions: in the presence of 0.1% casein (no HSA); geometric mean; read-out: Relative cAMP EC50, hGLP-1R;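 also: intracellular cAMP rise after 30 min at 37 °C read by HTRF, normalized between buffer only (0%) and maximal control ligand (100%), four-parameter variable-slope fit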
Method: After a 30-minute incubation at 37° C., the resulting increase in intracellular cAMP is quantitatively determined using the CisBio CAMP Dynamic 2 HTRF Assay Kit (62AM4PEJ). Briefly, cAMP levels within the cell are detected by adding the cAMP-d2 conjugate in cell lysis buffer followed by the antibody anti-cAMP-Eu^3+-Cryptate, also in cell lysis buffer.
Intracellular cAMP levels are determined by extrapolation using a standard curve. Dose response curves of compounds are plotted as the percentage of stimulation normalized to minimum (buffer only) and maximum (maximum concentration of each control ligand) values and analyzed using a four parameter non-linear regression fit with a variable slope (Genedata Screener 13). EC50 is the concentration of compound causing half-maximal simulation in a dose response curve. Each relative EC50 value for the Geometric mean calculation is determined from a curve fitting.

[6] = molecular target: T2, hGLP-1R; assay: Functional cAMP activity in the presence of 1% HSA; conditions: read-out: cAMP Rel EC50, hGLP-1R
[7] = HEK-293 clonal cell line, in the presence of 1% HSA, geometric mean of relative EC50

T2 sequence (P43220 24-463): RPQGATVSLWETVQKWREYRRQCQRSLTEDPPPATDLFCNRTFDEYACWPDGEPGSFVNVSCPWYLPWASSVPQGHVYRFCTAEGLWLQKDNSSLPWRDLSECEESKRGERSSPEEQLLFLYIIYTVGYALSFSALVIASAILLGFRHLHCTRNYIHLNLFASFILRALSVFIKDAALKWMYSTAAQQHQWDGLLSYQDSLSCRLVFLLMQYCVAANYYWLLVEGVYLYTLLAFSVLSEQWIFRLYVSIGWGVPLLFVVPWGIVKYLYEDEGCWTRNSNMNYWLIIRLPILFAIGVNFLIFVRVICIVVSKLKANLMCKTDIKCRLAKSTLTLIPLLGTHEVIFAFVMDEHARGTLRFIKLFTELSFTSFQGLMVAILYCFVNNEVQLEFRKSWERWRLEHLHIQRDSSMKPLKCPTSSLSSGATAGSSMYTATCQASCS
hGcgR, sequence (P47871 26-477): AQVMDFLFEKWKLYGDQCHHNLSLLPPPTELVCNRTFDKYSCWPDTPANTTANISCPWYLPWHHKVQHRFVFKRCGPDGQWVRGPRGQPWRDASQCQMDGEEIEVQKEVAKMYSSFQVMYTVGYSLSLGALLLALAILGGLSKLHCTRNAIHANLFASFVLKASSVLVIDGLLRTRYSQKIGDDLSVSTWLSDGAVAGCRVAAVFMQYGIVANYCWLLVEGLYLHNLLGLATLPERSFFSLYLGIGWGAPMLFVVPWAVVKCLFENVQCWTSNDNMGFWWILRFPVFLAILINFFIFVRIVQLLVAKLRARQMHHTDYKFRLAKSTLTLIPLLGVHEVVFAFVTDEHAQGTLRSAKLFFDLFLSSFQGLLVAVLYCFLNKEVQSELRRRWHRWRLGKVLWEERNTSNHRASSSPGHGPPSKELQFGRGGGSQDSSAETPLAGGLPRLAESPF
human GcgR, sequence (P47871 26-477): as above

| Substance | EC50 [1] [nM] | EC50 [2] [nM] | EC50 [3] [nM] | EC50 [4] [nM] | EC50 [5] [nM] | EC50 [6] [nM] | EC50 [1, 7] [nM] | EC50 [3, 7] [nM] | EC50 [6, 7] [nM] |
| --- | --- | --- | --- | --- | --- | --- | --- | --- | --- |
| H-Y[Aib]QGTFTSD[4Pal]SQ[αMeL]LD[Orn]K([γGlu-γGlu-C18 diacid])AQ[αMe4Pal]AFIEYLIAGGPSSGEPPPSGS-NH2 [Example 1007] | 636 | 0.116 | 12 | 5.34 | 0.668 | 95.1 |  |  |  |
| H-Y[Aib]QGTFTSD[4Pal]SQ[αMeL]LD[Orn]K([γGlu-γGlu-C18 diacid])AQ[αMe4Pal]AFIEYLIAGGPSSGEPPPSGSE [Example 977] | 839 | 0.189 | 23 | 7.18 | 1.1 | 159 |  |  |  |
| H-Y[Aib]QGTFTSD[4Pal]SQ[αMeL]LD[Orn]K([γGlu-γGlu-C18 diacid])AQ[αMe4Pal]AFIEYLIAGGPSSGEPPPSGSE-NH2 [Example 1008] | 1010 | 0.14 | 15.2 | 7.47 | 1.09 | 126 |  |  |  |
| H-Y[Aib]QGTFTSD[4Pal]SQ[αMeL]LD[Orn]K([γGlu-γGlu-C18 diacid])AQ[αMe4Pal]AFIEYLIAGGPSSGEPPPSGTEEE-NH2 [Example 986] |  | 0.299 |  | 4.94 | 3.06 |  | 702 | 31.3 | 380 |
| H-Y[Aib]QGTFTSD[4Pal]SQ[αMeL]LD[Orn]K([γGlu-γGlu-C18 diacid])AQ[αMe4Pal]AFIEYLIA[Aib]GPSSGAPPPSGSEE-NH2 [Example 1091] | 550 | 0.0592 | 5.79 | 4.67 | 1.23 | 145 |  |  |  |
| H-Y[Aib]QGTFTSD[4Pal]SQ[αMeL]LD[Orn]K([γGlu-γGlu-C18 diacid])AQ[αMe4Pal]AFIEYLIA[Aib]GPSSGEPPPSGSEE-NH2 [Example 1092] | 506 | 0.0648 | 7.83 | 3.45 | 1.33 | 230 |  |  |  |
| H-Y[Aib]QGTFTSD[4Pal]SQ[αMeL]LD[Orn]K([γGlu-γGlu-C18 diacid])AQ[αMe4Pal]AFIEYLIE[Aib]GPSSGAPPPSGSEE-NH2 [Example 937] | 1160 | 0.222 | 19.7 | 5.52 | 2.52 | 261 |  |  |  |
| H-Y[Aib]QGTFTSD[4Pal]SQ[αMeL]LD[Orn]K([γGlu-γGlu-C18 diacid])AQ[αMe4Pal]AFIEYLIE[dA]GPSSGAPPPSGS-NH2 [Example 1017] | 649 | 0.228 | 28.3 | 6.47 | 1.16 | 118 |  |  |  |
| H-Y[Aib]QGTFTSD[4Pal]SQ[αMeL]LD[Orn]K([γGlu-γGlu-C18 diacid])AQ[αMe4Pal]AFIEYLIE[dA]GPSSGEPPPSGS-NH2 [Example 1019] | 579 | 0.169 | 21.3 | 4.36 | 1.33 | 161 |  |  |  |
| H-Y[Aib]QGTFTSD[4Pal]SQ[αMeL]LD[Orn]K([γGlu-γGlu-C18 diacid])AQ[αMe4Pal]AFIE[αMeY]LIA[Aib]GPSSGAPPPSGSEE-NH2 [Example 1107] | 864 | 0.0447 | 5.29 | 5.66 | 0.51 | 59 |  |  |  |
| H-Y[Aib]QGTFTSD[4Pal]SQ[αMeL]LD[Orn]K([γGlu-γGlu-C18 diacid])AQ[αMe4Pal]AFIE[αMeY]LIA[Aib]GPSSGEPPPSGSEE-NH2 [Example 1094] | 831 | 0.0515 | 5.86 | 5.84 | 0.623 | 64.4 |  |  |  |
| H-Y[Aib]QGTFTSD[4Pal]SQ[αMeL]LD[Orn]K([γGlu-γGlu-C18 diacid])AQ[αMe4Pal]AFIE[αMeY]LIEGGPSSGAPPPSGSEE-NH2 [Example 1043] | 2240 | 0.282 | 44.9 | 17.1 | 1.52 | 268 |  |  |  |
| H-Y[Aib]QGTFTSD[4Pal]SQ[αMeL]LD[Orn]K([γGlu-γGlu-C18 diacid])AQ[αMe4Pal]AFIE[αMeY]LIE[Aib]GPSSGEPPPSGSEE-NH2 [Example 1093] | 958 | 0.152 | 26.8 | 7.72 | 0.954 | 141 |  |  |  |
| H-Y[Aib]QGTFTSD[4Pal]SQ[αMeL]LD[Orn]K([γGlu-γGlu-C18 diacid])AQ[αMe4Pal]AFI[dE][αMeY]LIEGGPSSGAPPPSGSEE-NH2 [Example 1044] | 2410 | 0.896 | 88.7 | 18.8 | 10.7 | 1110 |  |  |  |
| H-Y[Aib]QGTFTSD[4Pal]SQ[αMeL]LD[Orn]K([γGlu-γGlu-C18 diacid])AQ[αMe4Pal]QFIEYLIAGGPSSGAPPPSGSEE-NH2 [Example 1005] | 1670 | 0.152 | 14.5 | 9.46 | 1.48 | 171 |  |  |  |
| H-Y[Aib]QGTFTSD[4Pal]SQ[αMeL]LD[Orn]K([γGlu-γGlu-C18 diacid])AQ[αMe4Pal]QFIEYLLAGGPSSGAPPPSGSEE-NH2 [Example 1006] | 315 | 0.109 | 11.8 | 4.28 | 5.12 | 574 |  |  |  |
| H-Y[Aib]QGTFTSD[4Pal]SQ[αMeL]LD[Orn]K([γGlu-γGlu-C18 diacid])AQ[αMe4Pal]QFIE[αMeY]LIEGGPSSGAPPPSGSEE-NH2 [Example 1046] | 1680 | 0.352 | 85 | 10 | 1.94 | 528 |  |  |  |
| H-Y[Aib]QGTFTSD[4Pal]SR[αMeL]LDKK([AEEA-AEEA-γGlu-C18 diacid])AQ[αMe4Pal]AFIEYLIE[Aib]GPSSGAPPPSGS-NH2 [Example 815] | 798 | 0.181 | 17.9 | 4.13 | 2.79 | 342 |  |  |  |
| H-Y[Aib]QGTFTSD[4Pal]SR[αMeL]LDKK([AEEA-γGlu-C18 diacid])AQ[Aib]AFIEYLIE[Aib]GPSSGAPPPSGS-NH2 [Example 802] | 2520 | 0.124 | 16.9 | 16.6 | 1.41 | 153 |  |  |  |
| H-Y[Aib]QGTFTSD[4Pal]SR[αMeL]LDKK([AEEA-γGlu-C18 diacid])AQ[Aib]AFIE[αMeY]LIEGGPSSGAPPPSGS-NH2 [Example 837] | 2060 | 0.209 | 20.7 | 7.24 | 0.551 | 69.6 |  |  |  |
| H-Y[Aib]QGTFTSD[4Pal]SR[αMeL]LDKK([AEEA-γGlu-C18 diacid])AQ[Aib]AFIE[αMeY]LLEGGPSSGAPPPSGS-NH2 [Example 909] | 1740 | 0.121 | 20.2 | 6.82 | 1.72 | 243 |  |  |  |
| H-Y[Aib]QGTFTSD[4Pal]SR[αMeL]LDKK([AEEA-γGlu-C18 diacid])AQ[αMe4Pal]AFIEYLIE[Aib]GPSSGAPPPSGS-NH2 [Example 809] | 377 | 0.194 | 20.4 | 1.74 | 1.87 | 249 |  |  |  |
| H-Y[Aib]QGTFTSD[4Pal]SR[αMeL]LDKK([AEEA-γGlu-C18 diacid])AQ[αMe4Pal]AFIE[αMe4Pal]LIEGGPSSGAPPPSGSEE-NH2 [Example 956] | 406 | 0.26 | 32.1 | 2.17 | 4.83 | 643 |  |  |  |
| H-Y[Aib]QGTFTSD[4Pal]SR[αMeL]LDKK([γGlu-γGlu-C18 diacid])AQ[αMe4Pal]AFIEYLIAGGESSGAPPPSGSEE-NH2 [Example 965] | 430 | 0.13 | 23.2 | 3.35 | 1.39 | 194 |  |  |  |
| H-Y[Aib]QGTFTSD[4Pal]SR[αMeL]LDKK([γGlu-γGlu-C18 diacid])AQ[αMe4Pal]AFIEYLIAGGPSSGAPPPSGSEE-NH2 [Example 962] | 485 | 0.0972 | 9.71 | 3.13 | 1.36 | 132 |  |  |  |
| H-Y[Aib]QGTFTSD[4Pal]SR[αMeL]LDKK([γGlu-γGlu-C18 diacid])AQ[αMe4Pal]AFIE[αMe4Pal]LIEGGPSSGAPPPSGS-NH2 [Example 953] | 275 | 0.111 | 10.9 | 2.75 | 2.63 | 347 |  |  |  |
